Results from patent US7932284B2, “Indole sulfonamide modulators of progesterone receptors” (Eli Lilly and Company, priority 2006, dated 2011).

Experiments:
[1] = target: T1, human AR (androgen receptor) (Homo sapiens, UniProt P10275); test: AR competition binding assay (HEK293 cell lysate); conditions: 0.36 nM 3H-methyltrienolone, 293-AR lysate
T1 construct: expressed in transfected cells; host or cells: HEK293
T1 sequence (P10275 1-920): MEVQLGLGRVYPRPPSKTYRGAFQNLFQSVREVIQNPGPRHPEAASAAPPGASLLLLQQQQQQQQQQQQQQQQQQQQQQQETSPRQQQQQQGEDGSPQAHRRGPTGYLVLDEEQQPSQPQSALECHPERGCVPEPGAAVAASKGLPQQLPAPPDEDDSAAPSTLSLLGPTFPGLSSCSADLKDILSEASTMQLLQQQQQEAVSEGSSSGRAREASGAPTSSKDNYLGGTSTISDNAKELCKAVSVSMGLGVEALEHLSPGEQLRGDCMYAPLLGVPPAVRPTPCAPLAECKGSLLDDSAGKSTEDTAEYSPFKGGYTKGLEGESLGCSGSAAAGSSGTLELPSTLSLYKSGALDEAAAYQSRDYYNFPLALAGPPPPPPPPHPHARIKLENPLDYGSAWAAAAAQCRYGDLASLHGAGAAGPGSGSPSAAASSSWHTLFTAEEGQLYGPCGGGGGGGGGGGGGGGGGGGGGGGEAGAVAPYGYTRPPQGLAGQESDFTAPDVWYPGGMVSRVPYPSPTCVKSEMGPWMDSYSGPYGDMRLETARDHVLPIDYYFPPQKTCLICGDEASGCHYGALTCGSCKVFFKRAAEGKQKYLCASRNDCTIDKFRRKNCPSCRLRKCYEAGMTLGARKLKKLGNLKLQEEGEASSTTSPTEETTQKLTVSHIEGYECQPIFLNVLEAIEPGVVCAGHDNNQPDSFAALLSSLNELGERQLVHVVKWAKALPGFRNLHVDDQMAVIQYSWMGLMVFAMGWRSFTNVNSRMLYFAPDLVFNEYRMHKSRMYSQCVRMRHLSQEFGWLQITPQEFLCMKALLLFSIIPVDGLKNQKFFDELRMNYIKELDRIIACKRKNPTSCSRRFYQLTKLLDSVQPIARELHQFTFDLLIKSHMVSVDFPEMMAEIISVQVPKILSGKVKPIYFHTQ
Description: (§1) Cell lysates from HEK293 cells overexpressing human GR (glucocorticoid receptor), AR (androgen receptor), MR (mineralocorticoid receptor) or PR (progesterone receptor) are used for competition binding assays to determine Ki values for compounds of interest. Briefly, competition binding assays are run in a buffer containing 20 mM HEPES, pH 7.6, 0.2 mM EDTA, 75 mM NaCl, 1.5 mM MgCl2, 20% glycerol, 20 mM sodium molybdate, 0.2 mM DTT, 20 ug/ml aprotinin, and 20 ug/ml leupeptin, using either 0.3 nM ^3H-dexamethasone for GR binding, 0.36 nM ^3H-methyltrienolone for AR binding, 0.25 nM ^3H-aldosterone for MR binding, or 0.29 nM ^3H-methyltrienolone for PR binding, and either 20 ug 293-GR lysate, 22 ug 293-AR lysate, 20 ug 293-MR lysate or 40 ug 293-PR lysate per well. Competing compounds are added at various concentrations in half-log increments. Non-specific binding is determined in the presence of 500 nM dexamethasone for GR binding, 500 nM aldosterone for MR binding, or 500 nM methyltrienolone for AR and PR binding. The binding reaction (140 μl) is incubated overnight at 4° C., then 70 μl of cold charcoal-dextran buffer (containing per 50 ml of assay buffer, 0.75 g of charcoal and 0.25 g of dextran) is added to each reaction. Plates are mixed 8 minutes on an orbital shaker at 4° C. Plates are then centrifuged at 3,000 rpm at 4° C. for 10 minutes. An aliquot of 120 μl of the mixture is transferred to another 96-well plate and 175 μl of Wallac Optiphase “Hisafe 3” scintillation fluid is added to each well. Plates are sealed and shaken vigorously on an orbital shaker. After an incubation of 2 hrs, plates are read in a Wallac Microbeta counter. […] The Kd for ^3H-dexamethasone for GR binding, ^3H-methyltrienolone for AR binding, ^3H-aldosterone for MR binding, or ^3H-methyltrienolone for PR binding, is determined by saturation binding. The IC50 values for compounds are converted to Ki using Cheng-Prusoff equation and the Kd determined by saturation binding assay.

[2] = target: T2, human MR (mineralocorticoid receptor) (Homo sapiens, UniProt P08235); test: MR competition binding assay (HEK293 cell lysate); conditions: 0.25 nM 3H-aldosterone, 293-MR lysate
T2 construct: expressed in transfected cells; host or cells: HEK293
T2 sequence (P08235 1-984): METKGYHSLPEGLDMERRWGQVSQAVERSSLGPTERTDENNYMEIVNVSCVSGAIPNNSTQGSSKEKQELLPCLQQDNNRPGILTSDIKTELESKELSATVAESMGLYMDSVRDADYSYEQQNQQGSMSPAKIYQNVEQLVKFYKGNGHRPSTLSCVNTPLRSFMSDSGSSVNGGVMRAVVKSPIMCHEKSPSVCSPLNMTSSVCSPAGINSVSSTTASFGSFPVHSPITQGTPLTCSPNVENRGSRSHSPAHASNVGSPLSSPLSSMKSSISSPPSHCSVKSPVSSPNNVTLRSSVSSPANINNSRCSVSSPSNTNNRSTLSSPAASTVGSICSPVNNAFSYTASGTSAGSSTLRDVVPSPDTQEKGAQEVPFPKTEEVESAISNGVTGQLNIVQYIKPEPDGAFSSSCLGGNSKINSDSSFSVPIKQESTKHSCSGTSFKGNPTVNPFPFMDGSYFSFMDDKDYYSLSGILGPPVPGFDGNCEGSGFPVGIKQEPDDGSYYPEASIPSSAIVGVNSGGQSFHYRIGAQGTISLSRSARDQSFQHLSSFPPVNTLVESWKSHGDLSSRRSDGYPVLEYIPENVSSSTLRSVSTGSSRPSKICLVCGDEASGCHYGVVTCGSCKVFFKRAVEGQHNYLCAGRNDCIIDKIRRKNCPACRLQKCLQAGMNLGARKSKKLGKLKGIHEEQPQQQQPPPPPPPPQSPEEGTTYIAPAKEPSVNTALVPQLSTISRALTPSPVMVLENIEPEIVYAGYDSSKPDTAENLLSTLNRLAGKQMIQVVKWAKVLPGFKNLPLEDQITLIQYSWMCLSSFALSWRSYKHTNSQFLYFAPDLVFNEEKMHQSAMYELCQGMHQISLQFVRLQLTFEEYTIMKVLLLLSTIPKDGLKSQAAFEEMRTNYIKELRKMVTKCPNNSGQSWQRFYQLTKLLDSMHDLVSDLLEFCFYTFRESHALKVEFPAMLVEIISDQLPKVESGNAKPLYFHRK
Description: as §1

SMILES: Cn1cc(-c2ccc(C#N)cc2)c2ccc(NS(C)(=O)=O)cc21 [Example 25, N-[3-(4-Cyano-phenyl)-1-methyl-1H-indol-6-yl]-methanesulfonamide]
- Ki [1]: > 1000 nM
- Ki [2]: > 1000 nM

SMILES: CC(C)n1cc(-c2ccc(C#N)cc2)c2ccc(NS(C)(=O)=O)cc21 [Example 28, N-[3-(4-Cyano-phenyl)-1-isopropyl-1H-indol-6-yl]-methanesulfonamide]
- Ki [1]: > 1000 nM
- Ki [2]: > 1000 nM

SMILES: CC(C)Cn1cc(-c2ccc(C#N)cc2)c2ccc(NS(C)(=O)=O)cc21 [Example 29, N-[3-(4-Cyano-phenyl)-1-isobutyl-1H-indol-6-yl]-methanesulfonamide]
- Ki [1]: 100 to 500 nM
- Ki [2]: 500 to 1000 nM

SMILES: Cn1cc(-c2ccc([N+](=O)[O-])cc2)c2ccc(NS(C)(=O)=O)cc21 [Example 30, N-[1-Methyl-3-(4-nitro-phenyl)-1H-indol-6-yl]-methanesulfonamide]
- Ki [1]: > 1000 nM
- Ki [2]: > 1000 nM

SMILES: Cn1cc(-c2ccc(C#N)cc2)c2ccc(NS(=O)(=O)c3cccs3)cc21 [Example 32, Thiophene-2-sulfonic acid [3-(4-cyano-phenyl)-1-methyl-1H-indol-6-yl]-amide]
- Ki [1]: > 1000 nM
- Ki [2]: > 1000 nM

SMILES: CC(C)n1cc(-c2ccc(Cl)cc2)c2ccc(NS(C)(=O)=O)cc21 [Example 36, N-[3-(4-Chloro-phenyl)-1-isopropyl-1H-indol-6-yl]-methanesulfonamide]
- Ki [1]: 500 to 1000 nM
- Ki [2]: > 1000 nM

SMILES: CC(C)n1cc(-c2ccc(C#N)c(F)c2)c2ccc(NS(C)(=O)=O)cc21 [Example 38, N-[3-(4-Cyano-3-fluoro-phenyl)-1-isopropyl-1H-indol-6-yl]-methanesulfonamide]
- Ki [1]: 500 to 1000 nM
- Ki [2]: 500 to 1000 nM

SMILES: CC(C)n1cc(-c2ccc(C#N)s2)c2ccc(NS(C)(=O)=O)cc21 [Example 43, N-[3-(5-Cyano-thiophen-2-yl)-1-isopropyl-1H-indol-6-yl]-methanesulfonamide]
- Ki [1]: 100 to 500 nM
- Ki [2]: 100 to 500 nM

SMILES: CS(=O)(=O)Nc1ccc2c(-c3ccc(C#N)cc3)cn(C3CCCC3)c2c1 [Example 63, N-[3-(4-Cyano-phenyl)-1-cyclopentyl-1H-indol-6-yl]-methanesulfonamide]
- Ki [1]: > 1000 nM
- Ki [2]: > 1000 nM

SMILES: CS(=O)(=O)Nc1ccc2c(-c3ccc(C#N)cc3)cn(Cc3ccccc3)c2c1 [Example 72, N-[1-Benzyl-3-(4-cyano-phenyl)-1H-indol-6-yl]-methanesulfonamide]
- Ki [1]: > 1000 nM
- Ki [2]: < 50 nM

SMILES: CCOC(=O)c1ccc(-c2cn(C(C)C)c3cc(NS(C)(=O)=O)ccc23)cc1 [Example 74, 4-(1-Isopropyl-6-methanesulfonylamino-1H-indol-3-yl)-benzoic acid ethyl ester]
- Ki [1]: > 1000 nM
- Ki [2]: 100 to 500 nM

SMILES: CS(=O)(=O)Nc1ccc2c(-c3ccc(C#N)cc3)cn(CC3CCCCC3)c2c1 [Example 77, N-[3-(4-Cyano-phenyl)-1-cyclohexylmethyl-1H-indol-6-yl]-methanesulfonamide]
- Ki [1]: 100 to 500 nM
- Ki [2]: 100 to 500 nM

SMILES: CC(C)n1cc(-c2ccc(C#N)n2C)c2ccc(NS(C)(=O)=O)cc21 [Example 78, N-[3-(5-Cyano-1-methyl-1H-pyrrol-2-yl)-1-isopropyl-1H-indol-6-yl]-methanesulfonamide]
- Ki [1]: 50 to 100 nM
- Ki [2]: 100 to 500 nM

SMILES: CSc1ccc(-c2cn(C(C)C)c3cc(NS(C)(=O)=O)ccc23)cc1 [Example 83, N-[1-Isopropyl-3-(4-methylsulfanyl-phenyl)-1H-indol-6-yl]-methanesulfonamide]
- Ki [1]: > 1000 nM
- Ki [2]: 500 to 1000 nM

SMILES: Cc1ccc(-c2cn(C(C)C)c3cc(NS(C)(=O)=O)ccc23)cc1F [Example 84, N-[3-(3-Fluoro-4-methyl-phenyl)-1-isopropyl-1H-indol-6-yl]-methanesulfonamide]
- Ki [1]: 500 to 1000 nM
- Ki [2]: 500 to 1000 nM

SMILES: CC(C)n1cc(-c2ccccc2)c2ccc(NS(C)(=O)=O)cc21 [Example 85, N-(1-Isopropyl-3-phenyl-1H-indol-6-yl)-methanesulfonamide]
- Ki [1]: 100 to 500 nM
- Ki [2]: 500 to 1000 nM

SMILES: COc1ccc(-c2cn(C(C)C)c3cc(NS(C)(=O)=O)ccc23)cc1C [Example 86, N-[1-Isopropyl-3-(4-methoxy-3-methyl-phenyl)-1H-indol-6-yl]-methanesulfonamide]
- Ki [1]: > 1000 nM
- Ki [2]: > 1000 nM

SMILES: CC(C)n1cc(-c2ccc(C(N)=O)cc2)c2ccc(NS(C)(=O)=O)cc21 [Example 87, 4-(1-Isopropyl-6-methanesulfonylamino-1H-indol-3-yl)-benzamide]
- Ki [1]: > 1000 nM
- Ki [2]: > 1000 nM

SMILES: COc1ccc(-c2cn(C(C)C)c3cc(NS(C)(=O)=O)ccc23)cn1 [Example 88, N-[1-Isopropyl-3-(6-methoxy-pyridin-3-yl)-1H-indol-6-yl]-methanesulfonamide]
- Ki [1]: > 1000 nM
- Ki [2]: > 1000 nM

SMILES: CC(C)n1cc(-c2ccc(O)cc2)c2ccc(NS(C)(=O)=O)cc21 [Example 93, N-[3-(4-Hydroxy-phenyl)-1-isopropyl-1H-indol-6-yl]-methanesulfonamide]
- Ki [1]: 100 to 500 nM
- Ki [2]: 100 to 500 nM

SMILES: CC(C)n1cc(-c2ccc(C=NO)cc2)c2ccc(NS(C)(=O)=O)cc21 [Example 94, N-{3-[4-(Hydroxyimino-methyl)-phenyl]-1-isopropyl-1H-indol-6-yl}-methanesulfonamide]
- Ki [1]: 100 to 500 nM
- Ki [2]: 500 to 1000 nM

SMILES: CC(C)n1cc(-c2ccc3sccc3c2)c2ccc(NS(C)(=O)=O)cc21 [Example 95, N-(3-Benzo[b]thiophen-5-yl-1-isopropyl-1H-indol-6-yl)-methanesulfonamide]
- Ki [1]: 500 to 1000 nM
- Ki [2]: 500 to 1000 nM

SMILES: CC(C)n1cc(-c2ccc3oc(=O)ccc3c2)c2ccc(NS(C)(=O)=O)cc21 [Example 96, N-[1-Isopropyl-3-(2-oxo-2H-chromen-6-yl)-1H-indol-6-yl]-methanesulfonamide]
- Ki [1]: > 1000 nM
- Ki [2]: > 1000 nM
